Where only a bound is given, the exact number is not on record here.

In experiment [1] the test system is Colon adenocarcinoma cells LS174T. In words: RNA disruption in LS174T cells. The format is cell-based. The following applies: 24 hr, FIG. 20A. As to the method:
Colon adenocarcinoma cells LS174T were incubated with Sunitinib, a receptor tyrosine kinase inhibitor. RNA was isolated from the cells and analyzed using an Agilent Bioanalyzer.
RNA was isolated from the cells and analyzed using an Agilent Bioanalyzer.

A further experiment relates to tumour sample. In words: Maximal RDI score in tumour biopsies of patients on neo-adjuvant Zometa. The format is in vivo, human. The following applies: after the first cycle, FIG. 17C and 17D. As to the method: Biopsy samples were obtained from patients undergoing neo-adjuvant therapy with Zometa. RNA was isolated and analyzed using the Agilent Bioanalyzer. Electropherograms were analyzed using the methods 100 and 400 and the maximal RDI score was graphed for each tumour sample at each time-point.

Experiment [2] concerns docetaxel-resistant A2780DXL cells. In words: RNA disruption in docetaxel-resistant A2780 cells. The class given is cell-based, human. As to the method: A docetaxel A2780 resistant cell line was made as described in Li et al., Int. J. Mol. Med 2004 14(20): 257-264.
A time course experiment was conducted. Sensitive parental and docetaxel resistant A2780 cells were treated with docetaxel for 24 hours. RNA was isolated and run on an Agilent Bioanalyzer.

A further experiment has as its system A2780 cells. In words: Recovery Assay after docetaxel treatment. The following applies: 0.2 uM docetaxel up to 72 hours, washed, replated in drug-free media, FIG. 9C. The format is cell-based, human. As to the method:
A Recovery Assay was next carried out to determine if A2780 cells could recover from treatment with 0.2 uM docetaxel. A2780 cells were treated with 0.2 uM docetaxel for up to 72 hours and then washed and replated in drug-free media.

A further experiment concerns xenograft tumours. In words: RNA from docetaxel-treated xenograft tumours after storage in liquid nitrogen or saline (Agilent 2100 Bioanalyzer). The class given is in vivo. The arrangement: 18S Area / 28S Area / RNA Area: unit not given here. As to the method:
RNA isolated from xenograft tumours stored in liquid nitrogen, RNALater™ solution or left in saline for 1h, 2h, 5h and 24h to induce autocatalytic degradation was analyzed by measuring an RNA Integrity Number (RIN) using Agilent 2100 Bioanalyzer. […] Circles above the gel lanes indicate that an RIN number could be calculated (FIG. 8A). Circles encapsulated by squares indicate samples for which an RIN number could not be calculated. Control samples were untreated xenograft tumours (1-7). Treated samples (8-12) were given docetaxel. Various measurements for the data shown in FIGS. 8B-8M follow in Tables 3.1 to 3.12.

Experiment [3] deals with A2780 ovarian cancer cells. As to the kind of experiment: RNA disruption in drug-treated A2780 cells (Agilent Bioanalyzer electropherogram/gel). The format is cell-based, human. The settings on record: for Low C Area/(28S+18S) vs docetaxel dose: method 400; for RNA electropherogram banding pattern: 24 hours at 37° C. The protocol:
RNA was isolated from ovarian cancer cell line A2780 cells which had been treated with 10 μM docetaxel in 50% media or 20 μM epirubicin, each in 50% media. Cells were treated with the chemotherapeutic for 24 hours at 37° C. Isolated RNA was separated by microcapillary electrophoresis using the Agilent 2100 Bioanalyzer.
Cells were plated and treated with docetaxel concentrations ranging from 0.001-40 μM for 24 to 72 hours to assess the effect on cell number, RNA content, and integrity (measured using a Bioanalyzer 2100 from Agilent Technologies, Inc.).
RNA was isolated and electrophoretically separated on an Agilent Bioanalyzer. As shown in FIG. 9D bands appeared just below the 28S (e.g. intermediate) and 18S bands (e.g. low banding region) at 0.005 uM and peaked at 0.2 uM.
A time course experiment was conducted in A2780 cells. Cells were treated for up to 72 hours with docetaxel at 0.005 uM and 0.2 uM. RNA was isolated and run on an Agilent Bioanalyzer.
Plots of the combination of features Intermediate Area/(28S+18S) and Low C Area/(28S+18S) were generated using the method 400 although method 300 may also be used.

Experiment [4] has as its system A2780 ovarian cancer cells. In words: Amount of RNA per cell in A2780 cells treated with docetaxel. The class given is cell-based, human. As to the method:
A2780 cells treated for up to 72 hours with docetaxel at 0.005 uM and 0.2 uM, were analyzed for the amount of RNA per cell. RNA was isolated and electophoretically separated using an Agilent Bioanalyzer.

Experiment [5] has as its system A2780 ovarian cancer cells. In words: Cell counts of A2780 cells treated with docetaxel. The settings on record: up to 72 hours, FIG. 9A.
Experimental: A2780 cells were treated for up to 72 hours with docetaxel at 0.005 uM and 0.2 uM. Cell counts were measured at each time-point.
For experiment [6], the system named is Jurkat T leukemia cell line. The following applies: Fimognari et al 2009; cited from earlier work.
In experiment [7] the test system is Colon adenocarcinoma cells SW480. As to the kind of experiment: RNA disruption in SW480 cells. The class given is cell-based. The following applies: 72 hr, FIG. 20C. The protocol:
Colon adenocarcinoma cells SW480 were incubated with Epirubicin, a DNA synthesis inhibitor. RNA was isolated from the cells and analyzed using an Agilent Bioanalyzer. RNA Disruption is evident at 72 hr at […] (see FIG. 20C).

The subject of experiment [8] is A2780 ovarian cancer cells. As to the kind of experiment: Effect of caspase inhibitor on RNA integrity changes in docetaxel-treated cells. The format is cell-based, human. The settings on record: FIG. 9J. The protocol:
The effect of a caspase inhibitor on RNA integrity changes was next assessed. Cells were treated with or without docetaxel at a concentration of 0.2 uM in the presence or absence of the caspase inhibitor Q-DEVD-OPH (Biovision Laboratories) at a concentration of 10 uM.

Setting [9] is: tumour left in saline 1h, sample 9.
The mark [10] stands for this setting: tumour left in saline 2h, sample 10.
Setting [11] is: tumour left in saline 5h, sample 11.
[12] abbreviates: tumour left in saline 24h, sample 12.
Setting [13] is: tumour stored in liquid nitrogen, sample 8.

Regarding `CCN(CC)CCNC(=O)c1c(C)[nH]c(/C=C2\C(=O)Nc3ccc(F)cc32)c1C` [Sunitinib], the “concentration at which RNA Disruption is evident” value in [1] came out at 54 mM.

As for `O=P(O)(O)C(O)(Cn1ccnc1)P(=O)(O)O` [Zometa], the RDI values entry in the experiment with tumour sample is reported as “increased in some patients”.

Consider `CC(=O)O[C@@]12CO[C@@H]1C[C@H](O)[C@@]1(C)C(=O)[C@H](O)C3=C(C)[C@@H](OC(=O)[C@H](O)[C@@H](NC(=O)OC(C)(C)C)c4ccccc4)C[C@@](O)([C@@H](OC(=O)c4ccccc4)[C@H]21)C3(C)C` [docetaxel], for which, in [2] (A2780DXL cells treated with docetaxel), the “RNA disruption and cellular RNA content” value was “did not result in RNA disruption or changes in cellular RNA content”. Also, in [2] (resistant cells, docetaxel 24 hours, FIG. 9I), the “RNA banding below the 28S and 18S bands” value is “no banding is evident”. Besides, the “resumption of cell proliferation after drug withdrawal” value with A2780 cells is on record as “No resumption of cell proliferation”. Besides, in the experiment with xenograft tumours (setting [9]), the “18S % of total Area” value came out at 8.3%, the “18S Area” value is given as 13.2, the “28S % of total Area” value was 6.4% and the “28S Area” value came out at 10.2. For the same compound, in the experiment on xenograft tumours (setting [9]), the “RNA Area” value stood at 158.5, the “RNA Concentration” value stood at 85 ng/µL and the “rRNA Ratio [28 s/18 s]” value is reported as 0.8. Also, in the experiment on xenograft tumours (setting [10]), the “18S % of total Area” value was found to be 9.8%, the “18S Area” value is 27.3, the “28S % of total Area” value is 6.6% and the “28S Area” value was 18.5. Moreover, in the experiment on xenograft tumours (setting [10]), the “RNA Area” value is given as 278.5, the “RNA Concentration” value is 150 ng/µL, the “RNA Integrity Number (RIN)” value is on record as 6.5 (B.02.06) and the “RNA Ratio [28 s/18 s]” value amounted to 0.7. Further, in the experiment with xenograft tumours (setting [11]), the “18S % of total Area” value was determined as 6.5%, the “18S Area” value was 15.4, the “28S % of total Area” value is recorded as 6.6% and the “28S Area” value is 15.4. In the experiment with xenograft tumours (setting [11]), the “RNA Area” value was 235.4, the “RNA Concentration” value is 127 ng/µL and the “rRNA Ratio [28 s/18 s]” value was 1.0. Also, in the experiment on xenograft tumours (setting [12]), the “18S % of total Area” value came out at 1.1%, the “18S Area” value worked out at 1.9, the “RNA Area” value was determined as 168.9 and the “RNA Concentration” value is 91 ng/µL. For the same compound, in the experiment with xenograft tumours (setting [12]), the “RNA Integrity Number (RIN)” value is 2.7 (B.02.06) and the “rRNA Ratio [28 s/18 s]” value came to 0.0. In the experiment on xenograft tumours (setting [13]), the “18S % of total Area” value is on record as 18.4%, the “18S Area” value is recorded as 46.1, the “28S % of total Area” value came to 21.8% and the “28S Area” value stood at 54.6. Further, in the experiment on xenograft tumours (setting [13]), the “RNA Area” value is 250.5, the “RNA Concentration” value turned out to be 135 ng/µL, the “RNA Integrity Number (RIN)” value was 9.1 (B.02.06) and the “rRNA Ratio [28 s/18 s]” value was determined as 1.2. Further, the “Low C Area/(28S+18S) vs docetaxel dose” value in [3] (8 hr, 24 hr, or 48 hr) was “Little change”. In addition, in experiment [3] (24 hours, 0 to 40 uM, FIG. 9D), the “docetaxel concentration at which banding below 28S and 18S peaked” value was found to be 0.2 µM; the “docetaxel concentration at which bands appeared just below the 28S and 18S bands” value is 0.005 µM. Further, the “docetaxel concentration at which additional bands are visible on gel” value in experiment [3] (FIG. 9D, 24 hours) was determined as 0.05 µM. Further, the “docetaxel concentrations giving dose and time-dependent reductions in cell number and cell RIN values while RDI increased” value in [3] (RDI = Intermediate Area/(28S+18S)) is at least 0.1 µM. For the same compound, the “Low C Area/(28S+18S) vs docetaxel dose” value in experiment [3] (after 72 hr) is on record as “dramatic increase”. In [3] (docetaxel 0.005 uM and 0.2 uM, 24 to 72 hours, FIG. 9F), the “Intermediate/(28S+18S)” value is “increases dramatically with time”. Besides, the “Low banding area/(28S+18S)” value in experiment [3] (docetaxel 0.005 uM and 0.2 uM, 24 to 72 hours, FIG. 9G) is recorded as “also increases with time”. Besides, the “RNA banding in time course” value in [3] (docetaxel 0.005 uM and 0.2 uM, up to 72 hours, FIG. 9H) is “banding appears below the 28S and 18S bands at all time-points”. In addition, the “RNA electropherogram banding pattern” value in experiment [3] (docetaxel 10 μM in 50% media, FIG. 2) was “shows an intermediate peak and a peak adjacent to the 18S peak”. Also, in [3] (docetaxel concentrations ≥0.005 uM), the RIN result is “did not change significantly”. Besides, in experiment [3] (sensitive parental cells, 24 hours, FIG. 9I), the “docetaxel concentration at which banding appears below the 28S and 18S bands” value was 0.005 µM. In [4] (docetaxel 0.005 uM and 0.2 uM, up to 72 hours, FIG. 9B), the “amount of RNA per cell” value is “increase in a time-dependent and dose-dependent manner”. Also, the “RNA content per cell” value in experiment [4] (low docetaxel concentrations) is on record as “increased per cell”. Also, the “docetaxel concentrations at which cell numbers remained constant” value in experiment [5] was “greater than or equal to 0.005 uM”.

With `COc1cccc2c1C(=O)c1c(O)c3c(c(O)c1C2=O)C[C@@](O)(C(=O)CO)C[C@@H]3O[C@H]1C[C@H](N)[C@H](O)[C@H](C)O1` [doxorubicin], the “susceptibility of total RNA to chemical attack” value in [6] is on record as “susceptible to chemical attack”.

With `COc1cccc2c1C(=O)c1c(O)c3c(c(O)c1C2=O)C[C@@](O)(C(=O)CO)C[C@@H]3O[C@H]1C[C@H](N)[C@@H](O)[C@H](C)O1` [epirubicin], the “concentration at which RNA Disruption is evident” value in experiment [7] is listed as 0.5 mM. Besides, the “RNA electropherogram banding pattern” value in experiment [3] (epirubicin 20 μM in 50% media, FIG. 3) is “intermediate bands between the 18S and 28S peaks”.

For Q-DEVD-OPH, the “bands below the 28S and 18S bands” value in [8] (0.2 uM docetaxel with or without 10 uM caspase inhibitor) is “detectable in the presence and absence”. In addition, the “effect on loss of 28S and 18S bands” value in experiment [8] (10 uM inhibitor with 0.2 uM docetaxel, 72 hr) is “reduces the loss of 28S and 18S bands”.

Source of the values: patent publication US12633374B2, “Method for determining efficacy of chemotherapy treatment for a subject” (RNA Diagnostics Inc., priority 2012, dated 2026).
